Measured values reported in PMC11274943, “Discovery of Benzisothiazolone Derivatives as Bifunctional Inhibitors of HIV-1 Reverse Transcriptase DNA Polymerase and Ribonuclease H Activities” (Biomolecules, 2024).

What was measured:
Assay in all cases: biochemical
Format in all cases: biochemical
[1] = molecular target: T1, G190A HIV-1 RT DNA-dependent DNA polymerase activity (Human immunodeficiency virus type 1 group M subtype B, UniProt P04585, G777A)
T1 construct: made in house
Description: (§1) WT (wild-type) RT, and RTs harboring the NNRTI-resistant mutations K101E, K103N, Y181C, Y188C, G190A and P236L, were overexpressed and purified to homogeneity as described previously. The RT concentration was determined spectrophotometrically at 280 nm using an absorbance coefficient of 260,450 M^−1·cm^−1. The 7-hydroxy tropolone derivative 19,616 (2,7-dihydroxy 2,4,6-cyclo-heptatrien-1-one) was purchased from Molecular Diversity Preservation International (Basel, Switzerland). […] The benzisothiazolone derivatives were procured from MolPort (New York, NY, USA) or Enamine (Kyiv, Ukraine). The DNA and RNA oligonucleotides were synthesized and purified by Integrated DNA Technologies (Coralville, IA, USA). All other reagents were of the highest quality available and were used without further purification.
(§2) DDDP assays were also performed using a QuantiFluor ONE based spectrophotometric assay to detect double-stranded DNA synthesized by recombinant HIV-1 RT [14]. The reaction contained 40 nM of a template/primer comprising a 200 nt DNA template (5′-[…] […]-[…]-[…] […] […]-3′) annealed to an 18-nucleotide DNA primer (5′-[…]-3′), and a mix of 50 mM Tris-HCl pH 7.8, 50 mM NaCl, 10 mM MgCl2 and 50 µM dNTP. The reactions were stopped after 45 min by adding the detection reagent containing 1 × Quant-Fluor One (Promega) and 12.5 mM ethylenediaminetet-raacetic acid; the samples were transferred to a 96-well black plate, and fluorescence was measured at excitation/emission (490/535 nm).

[2] = system: Y181C HIV-1 RT DNA-dependent DNA polymerase activity; details: Y181C RT; fold resistance IC50 mutant/IC50 WT
Description: as §1, §2

[3] = molecular target: T2, K101E HIV-1 RT DNA-dependent DNA polymerase activity (Human immunodeficiency virus type 1 group M subtype B, UniProt P04585, K688E)
T2 construct: made in house
Description: as §1, §2

[4] = system: Y188C HIV-1 RT DNA-dependent DNA polymerase activity; details: Y188C RT; fold resistance IC50 mutant/IC50 WT
Description: as §1, §2

[5] = molecular target: T3, P236L HIV-1 RT DNA-dependent DNA polymerase activity (Human immunodeficiency virus type 1 group M subtype B, UniProt P04585, P823L)
T3 construct: made in house
Description: as §1, §2

[6] = system: K101E HIV-1 RT DNA-dependent DNA polymerase activity; details: K101E RT; fold resistance IC50 mutant/IC50 WT
Description: as §1, §2

[7] = molecular target: T4, Y181C HIV-1 RT DNA-dependent DNA polymerase activity (Human immunodeficiency virus type 1 group M subtype B, UniProt P04585, Y768C)
T4 construct: made in house
Description: as §1, §2

[8] = system: K103N HIV-1 RT DNA-dependent DNA polymerase activity; details: K103N RT; fold resistance IC50 mutant/IC50 WT
Description: as §1, §2

[9] = molecular target: T5, K103N HIV-1 RT DNA-dependent DNA polymerase activity (Human immunodeficiency virus type 1 group M subtype B, UniProt P04585, K690N)
T5 construct: made in house
Description: as §1, §2

[10] = molecular target: T6, WT HIV-1 RT DNA-dependent DNA polymerase activity (Human immunodeficiency virus type 1 group M subtype B, UniProt P04585)
T6 construct: made in house
Description: as §1, §2

[11] = molecular target: T7, Y188C HIV-1 RT DNA-dependent DNA polymerase activity (Human immunodeficiency virus type 1 group M subtype B, UniProt P04585, Y775C)
T7 construct: made in house
Description: as §1, §2

[12] = system: P236L HIV-1 RT DNA-dependent DNA polymerase activity; details: P236L RT; fold resistance IC50 mutant/IC50 WT
Description: as §1, §2

[13] = molecular target: T8, WT HIV-1 RT RNase H activity (Human immunodeficiency virus type 1 group M subtype B, UniProt P04585)
T8 construct: made in house
Description: as §1
Compounds were screened at a final concentration of 10 µM in 1× assay buffer (50 mM Tris pH 8.0, 60 mM KCl, 5 mM MgCl2) containing 1% DMSO in 384-well Greiner black polystyrene plates (VWR catalog # 82051-272). A total of 10 µL of intermediate diluted compounds (100 µM in 10% DMSO) was transferred into assay plates using the Evolution-3 (EP3) (Perkin Elmer, Waltham, MA, USA) automated liquid handling platform outfitted with a 384-well transfer head. A total of 40 µL of RT-RNase H enzyme (60 ng per well) were then dispensed into each well using the Titertek MAP-C2 reagent dispenser platform (Huntsville, AL, USA). A total of 50 µL of the RNA/DNA duplex (140 nM) substrate was then dispensed into each well using the MAP-C2 dispenser, and the assay plates were then incubated at room temperature for 20 min. After 20 min, the assay was terminated by the addition of 10 µL of 1 M EDTA pH 9.0 stop buffer. Relative fluorescent unit (RFU) signals, Excitation 490 nm and Emission 528 nm (Cutoff 515 nm), were captured on the Spectromax M5e plate reader (Molecular Devices, Menlo, CA, USA). […] The template also calculated the plate signal-to-background (S:B) ratios (mean maximum signal/mean minimum signal) and Z’-factor coefficient HTS performance statistics.
The following RNA/DNA T/P substrate was used in the present study: an 18-nucleotide RNA template (RNA-18T: 5′-[…]-3′) was annealed to an 18-nucleotide primer (DNA-18T: 5′-[…]-3′), as described previously. Fluorescein and IowaBlack FQTM were covalently attached to the 3′- and 5′-ter-mini of the RNA and DNA oligonucleotides, respectively.
The FRET-based RNase H cleavage assays were carried out as described previously. Fluorescence was measured with a SpectraMax M2 microplate spectrofluorometer (Molecular Devices, San Jose, CA, USA) using an excitation wavelength of 490 nm and an emission wavelength of 528 nm. Data were analyzed using SoftMax Pro software, version 4.7.1 (Molecular Devices, San Jose, CA, USA).
We implemented a rapid, robust and inexpensive fluorescence-based 384-well assay for the measurement of RT RNase H activity, previously described by Parniak et al.. The substrate comprises an 18-nucleotide 3′-fluorescein-labeled heteropolymeric RNA annealed to a complementary 5′-dabcyl-modified DNA. RT cleaves the RNA strand of this substrate close to the 3′ end, promoting the dissociation of the fluorescein-labeled RNA fragment and generating a detectable fluorescent signal. We used this HTS assay to screen 65,239 compounds at a final concentration of 10 µM.

Compound | IC50 [1] [nM] | Inhibition of RT DNA polymerase activity Fold-R [2] | IC50 [3] [µM] | Inhibition of RT DNA polymerase activity Fold-R [4] | IC50 [5] [nM] | Inhibition of RT DNA polymerase activity Fold-R [6] | IC50 [7] [nM] | Inhibition of RT DNA polymerase activity Fold-R [8] | IC50 [9] [µM] | IC50 [10] [nM] | IC50 [11] [nM] | Inhibition of RT DNA polymerase activity Fold-R [12] | IC50 [13] [nM]
CCN(CC)S(=O)(=O)c1cccc(-n2sc3ccccc3c2=O)c1 [Compound 4, N,N-diethyl-3-(3-oxobenzo[d]isothiazol-2(3H)-yl)benzenesulfonamide] | 1700 ± 1000 | 0.45 | 1.8 ± 0.7 | 0.3 | 1600 ± 900 | 1.6 | 500 ± 200 | 1.9 | 2.1 ± 0.7 | 1100 ± 300 | 300 ± 100 | 1.5 | 260 ± 80
Cc1ccc(-n2sc3ccccc3c2=O)cc1S(=O)(=O)N1CCCCC1 [Compound 1, 2-(4-methyl-3-(piperidin-1-ylsulfonyl)phenyl)benzo[d]isothiazol-3(2H)-one] | 1600 ± 880 | 0.1 | 7.33 ± 7.05 | 0.02 | 2220 ± 180 | 1.2 | 610 ± 60 | 0.6 | 3.66 ± 1.84 | 5970 ± 3100 | 140 ± 10 | 0.4 | 160 ± 30
CCOC(=O)Cc1csc(-n2sc3ccccc3c2=O)n1 [Compound 2, ethyl 2-(2-(3-oxobenzo[d]isothiazol-2(3H)-yl)thiazol-4-yl)acetate] | 1930 ± 490 | 0.3 | 4.88 ± 1.56 | 0.2 | 5130 ± 1680 | 1.8 | 710 ± 100 | 1.2 | 3.28 ± 1.53 | 2640 ± 1850 | 530 ± 80 | 1.9 | 130 ± 40
